AC50 and EC50 data for 26 compounds are collected here from ChEMBL document CHEMBL1201862, “PubChem BioAssay data set” (2004).

The source made the active and inactive calls. For most assays here, no stated cut-off is given here; in the data, actives have a measured EC50 and inactives only a lower limit.

Assay [1] has as its target FAD-linked sulfhydryl oxidase ALR (Homo sapiens, UniProt P55789). Briefly: ALR-catalysed DTT oxidation blockers – biochemical, H2O2 detection, luminescence, cherry-pick, dose response (AID 493248).
In assay [2] the target is T1, RNA-binding protein pos-1 (Caenorhabditis elegans, UniProt G5EF15).
T1 sequence (G5EF15 whole entry): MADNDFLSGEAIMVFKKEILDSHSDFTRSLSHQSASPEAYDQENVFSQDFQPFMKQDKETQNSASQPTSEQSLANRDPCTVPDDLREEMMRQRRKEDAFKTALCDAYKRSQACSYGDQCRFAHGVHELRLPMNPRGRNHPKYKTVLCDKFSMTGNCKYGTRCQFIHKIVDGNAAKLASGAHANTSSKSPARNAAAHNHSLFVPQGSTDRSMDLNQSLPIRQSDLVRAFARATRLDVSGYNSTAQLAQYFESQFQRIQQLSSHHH
Kind of assay: disruptors of C. elegans POS-1 RNA interaction – biochemical, fluorescence polarization, dose response (AID 1964).

Assay [3] has as its target T2, Zinc finger protein mex-5 (Caenorhabditis elegans, UniProt Q9XUB2).
T2 sequence (Q9XUB2 whole entry): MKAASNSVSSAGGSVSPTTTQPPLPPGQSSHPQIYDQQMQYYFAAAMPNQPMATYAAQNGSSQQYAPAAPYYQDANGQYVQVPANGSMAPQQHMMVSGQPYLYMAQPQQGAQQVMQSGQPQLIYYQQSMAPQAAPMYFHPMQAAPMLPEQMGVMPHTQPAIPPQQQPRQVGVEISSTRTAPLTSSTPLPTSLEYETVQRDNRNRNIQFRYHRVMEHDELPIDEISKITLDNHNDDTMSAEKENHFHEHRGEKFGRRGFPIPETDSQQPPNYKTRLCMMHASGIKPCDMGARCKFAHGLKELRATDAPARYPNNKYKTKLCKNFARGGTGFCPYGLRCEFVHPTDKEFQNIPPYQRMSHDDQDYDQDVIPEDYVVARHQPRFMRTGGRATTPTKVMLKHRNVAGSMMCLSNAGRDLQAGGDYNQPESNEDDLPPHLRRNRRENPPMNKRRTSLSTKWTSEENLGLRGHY
Briefly: potency of MEX-5 RNA-binding blockers – biochemical, C. elegans, fluorescence polarization, dose response (AID 1960). For orientation: Fluorescence polarisation rises when a labelled molecule tumbles more slowly, as on binding a larger partner.

Assay [4] deals with T3, Replicative DNA helicase DnaB (Mycobacterium tuberculosis, UniProt P9WMR3).
T3 sequence (P9WMR3 whole entry): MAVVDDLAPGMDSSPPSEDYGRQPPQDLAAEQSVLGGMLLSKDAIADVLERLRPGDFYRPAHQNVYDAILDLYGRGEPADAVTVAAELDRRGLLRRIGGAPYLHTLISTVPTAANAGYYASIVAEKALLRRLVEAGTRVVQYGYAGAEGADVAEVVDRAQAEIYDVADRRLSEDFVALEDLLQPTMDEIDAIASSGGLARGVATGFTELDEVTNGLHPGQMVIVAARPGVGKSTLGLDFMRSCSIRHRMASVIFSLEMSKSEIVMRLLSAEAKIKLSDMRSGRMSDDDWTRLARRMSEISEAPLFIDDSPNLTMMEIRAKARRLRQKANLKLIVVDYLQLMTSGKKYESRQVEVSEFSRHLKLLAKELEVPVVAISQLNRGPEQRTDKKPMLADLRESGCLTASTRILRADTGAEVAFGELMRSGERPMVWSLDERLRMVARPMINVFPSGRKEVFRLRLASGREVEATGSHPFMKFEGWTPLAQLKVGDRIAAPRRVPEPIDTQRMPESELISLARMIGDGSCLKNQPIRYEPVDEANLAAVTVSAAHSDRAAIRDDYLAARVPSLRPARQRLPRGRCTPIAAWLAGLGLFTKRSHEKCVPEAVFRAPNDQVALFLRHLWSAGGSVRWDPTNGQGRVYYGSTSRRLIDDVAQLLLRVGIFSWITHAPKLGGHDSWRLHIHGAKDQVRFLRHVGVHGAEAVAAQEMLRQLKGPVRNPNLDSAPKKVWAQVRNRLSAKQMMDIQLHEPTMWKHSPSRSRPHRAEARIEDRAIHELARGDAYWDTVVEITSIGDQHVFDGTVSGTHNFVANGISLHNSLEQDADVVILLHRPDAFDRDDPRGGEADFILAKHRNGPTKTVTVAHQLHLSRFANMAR
Briefly: DnaB intein splicing inhibitors, dose response, biochemical, cell-free fluorescence (AID 449749). The assay is classed as functional.

The next assay deals with T4, Protein RecA (Mycobacterium tuberculosis, UniProt P9WHJ3).
T4 sequence (P9WHJ3 whole entry): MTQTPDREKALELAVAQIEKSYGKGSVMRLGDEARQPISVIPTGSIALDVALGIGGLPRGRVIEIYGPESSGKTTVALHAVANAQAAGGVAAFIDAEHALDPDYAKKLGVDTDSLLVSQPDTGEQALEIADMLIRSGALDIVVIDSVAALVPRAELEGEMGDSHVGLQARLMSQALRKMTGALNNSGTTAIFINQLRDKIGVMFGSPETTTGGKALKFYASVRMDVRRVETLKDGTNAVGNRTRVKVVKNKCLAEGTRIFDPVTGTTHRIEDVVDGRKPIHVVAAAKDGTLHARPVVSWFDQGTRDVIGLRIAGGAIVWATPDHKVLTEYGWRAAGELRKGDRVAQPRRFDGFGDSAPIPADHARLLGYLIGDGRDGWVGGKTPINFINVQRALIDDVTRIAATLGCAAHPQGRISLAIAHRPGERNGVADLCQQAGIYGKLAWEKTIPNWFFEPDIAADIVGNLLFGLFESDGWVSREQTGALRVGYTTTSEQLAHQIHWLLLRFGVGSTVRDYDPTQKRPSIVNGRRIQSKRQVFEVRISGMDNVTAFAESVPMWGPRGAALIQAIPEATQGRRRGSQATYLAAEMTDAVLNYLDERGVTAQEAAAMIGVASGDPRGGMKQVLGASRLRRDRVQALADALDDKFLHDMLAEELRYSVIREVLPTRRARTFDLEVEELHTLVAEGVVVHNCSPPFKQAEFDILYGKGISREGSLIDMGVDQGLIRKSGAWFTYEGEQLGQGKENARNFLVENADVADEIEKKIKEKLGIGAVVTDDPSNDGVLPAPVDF
Kind of assay: Fluorescence Cell-Free Homogeneous Dose Retest to Identify Inhibitors of RecA-Intein Splicing Activity. [Related pubchem assays (depositor defined):AID2097, AID2223, AID489010, AID492950]. The assay is classed as functional.

The target of a further assay is T5, Streptokinase A (Streptococcus pyogenes serotype M1, UniProt P10520).
T5 sequence (P10520 whole entry): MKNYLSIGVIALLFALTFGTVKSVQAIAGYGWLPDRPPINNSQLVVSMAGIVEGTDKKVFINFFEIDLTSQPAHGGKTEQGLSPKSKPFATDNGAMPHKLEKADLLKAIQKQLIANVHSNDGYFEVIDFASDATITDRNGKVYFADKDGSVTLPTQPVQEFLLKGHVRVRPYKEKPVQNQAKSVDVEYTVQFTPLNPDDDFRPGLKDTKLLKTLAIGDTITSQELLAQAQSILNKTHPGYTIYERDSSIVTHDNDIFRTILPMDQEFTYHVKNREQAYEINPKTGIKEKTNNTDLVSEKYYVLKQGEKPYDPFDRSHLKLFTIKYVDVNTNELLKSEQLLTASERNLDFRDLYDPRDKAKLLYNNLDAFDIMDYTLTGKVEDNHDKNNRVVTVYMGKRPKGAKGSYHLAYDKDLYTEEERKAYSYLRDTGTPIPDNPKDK
Kind of assay: viability-normalized secreted streptokinase activity reduction – plasminogen activation absorbance, OD405, dose response (AID 1914). The assay is classed as functional, Streptococcus pyogenes M1 GAS.

For assay [5], the system named is Streptococcus sp. 'group A'. Kind of assay: Streptococcus pyogenes SK(-)GAS viability under kanamycin – luminescence, BacTiterGlo, confirmation, counter-screen for streptokinase expression inhibitor project, dose response (AID 1900). The assay is classed as functional, organism-based. For orientation: A counterscreen serves to expose hits that act by an unwanted route or on another target.

The test system of the next assay is Streptococcus. Kind of assay: GAS UMAA2166 growth inhibition – luminescence, BacTiterGlo, counter-screen for streptokinase expression inhibitor project, dose response (AID 1915). In kind it is functional, organism-based.
Assay [6] is described as follows: HIV-1 AD8 envelope cell-cell fusion blockers – cherry-pick, dose response (AID 652062). In kind it is functional, cell-based.
Assay [7] in a line: blockers of HIV-1 ZM109 envelope-driven cell-cell fusion – HeLa effector, CEM target cells, luciferase, cherry-pick, dose response (AID 652058). The assay is classed as functional, cell-based.

Chain of FAD-linked sulfhydryl oxidase ALR (P55789 whole entry): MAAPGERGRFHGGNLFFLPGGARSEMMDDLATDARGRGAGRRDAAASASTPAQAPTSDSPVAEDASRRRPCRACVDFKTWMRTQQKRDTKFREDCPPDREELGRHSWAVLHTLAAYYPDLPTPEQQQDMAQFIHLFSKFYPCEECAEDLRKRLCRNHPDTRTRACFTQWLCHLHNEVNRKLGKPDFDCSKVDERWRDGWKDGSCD

Usually AC50 stands for the concentration at which the activity in the assay is half-maximal. Turning to `Nc1scc(-c2ccncc2)c1Cl`, the AC50 in assay [1] is 1.73 µM (active).

Take `Nc1ncc(Br)cc1S(=O)(=O)NCCC(=O)N1CCN(c2ccccc2)CC1`: the AC50 in assay [1] was 1.56 µM (active).

By EC50 is commonly meant the concentration giving a 50% effect. As to `Cc1ccc2nc(O)c(CN(CCO)Cc3nnnn3CCc3ccccc3)cc2c1`, the 50% effective concentration (EC50) in assay [2] and in assay [3] was > 300 µM (not active) in each case.

As to `Cc1ccc(N2C(=O)C(Cl)=C(NCCO)C2=O)c(C)c1`, the AC50 in [4] is 155 µM (active). Besides, the concentration for a half-maximal effect (EC50) on Protein RecA was 10.8 µM (active).

On to `O=C(N[C@H]1CP(=O)(Oc2ccccc2)O[C@H](COCc2ccccc2)[C@H]1O)C(Cl)(Cl)Cl` (stereo not given in full), for which the EC50 in assay [2] and in assay [3] was > 300 µM (not active) throughout.

As for `CN(C)c1ccc(C(c2nnnn2C(C)(C)C)N2CCN(C(=O)c3ccco3)CC2)cc1` (stereo not given), the AC50 in assay [1] is 3.83 µM (active).

Take `COC(=O)CCC(=O)OC1(C)C(=O)C2=CN(CCc3ccccn3)C(c3ccc(OC)cc3)=CC2=C(Br)C1=O` (stereo not given): the EC50 in assay [2] was 68.5 µM (active); in [3] it was 8.83 µM (active).

In the case of `CC(C)(C)OC(=O)NCCCC1=CC2=CC(=O)C(C)(OC(=O)c3ccco3)C(=O)C2=CO1` (stereo not given), the figures for the EC50 in assay [2] and in assay [3] were 46.9 µM (active) and 46.8 µM (active), respectively.

`COc1ccc(N2CCN(C(=O)Cc3ccc(OC)c(OC)c3)CC2)cc1`: the AC50 in assay [1] is 7.7 µM (active).

`Cc1ccc(CNC(=O)CCN2C(=O)[C@@H]3Cc4ccccc4CN3C2=O)cc1`: the AC50 in assay [4] was 373 µM (active). Further, at Protein RecA, the EC50 is > 380 µM (inactive).

On to `Cc1ccc(/C=C2/Sc3ccc(C(=O)N4CCC5(CC4)OCCO5)cc3NC2=O)cc1`, for which the EC50 in [2] is 4.37 µM (active); at Streptokinase A it was > 150 µM (not active); in [3], 8.06 µM (inconclusive); in assay [5], 7.6 µM (active); in the assay on Streptococcus it was 9.49 µM (active).

Consider `O=C(CNCC1CCCCC1)Nc1ccc(N2CCCCC2)cc1`, for which the AC50 in assay [1] is 13.4 µM (active).

Regarding `CC1(S(=O)(=O)O)CC(=O)c2ccccc2C1=O` (stereo not given), in assay [4], the AC50 is 5.26 µM (active). Moreover, at Protein RecA, the EC50 was 3.03 µM (active).

As for `CCCCC(=O)NC(c1cccc([N+](=O)[O-])c1)c1c(OC(C)=O)ccc2ccccc12` (stereo not given), in assay [4], the AC50 was 41.6 µM (active). Also, the EC50 on Protein RecA is 25.4 µM (active).

As for `O=[N+]([O-])/C(C(Cl)=C(Cl)Cl)=C(/Sc1ccccc1)N1CCCCC1`, the concentration at half-maximal activity (AC50) in assay [4] was 3.88 µM (active). Further, the EC50 at Protein RecA is 7.05 µM (active).

As to `COCc1cc(O)n2ncc(-c3ccsc3)c2n1`, the AC50 in assay [1] is 3.5 µM (active).

As for `O=C(Nc1cccc(OC(=O)c2ccc(Br)o2)c1)c1ccccc1`, in assay [4], the AC50 was 0.0485 µM (inconclusive). On Protein RecA, the EC50 is 9.2 µM (active).

As for `CCCc1n[nH]c2c1C(c1ccc(O)c(OC)c1)C(C#N)=C(N)O2` (stereo not given), the AC50 in assay [4] was 57.1 µM (active). Also, the EC50 on Protein RecA was 8.18 µM (active).

Turning to `CC1CC(C)CN(C(=O)c2ccc3c(c2)N(Cc2ccccc2)CCS3)C1` (stereo not given), the AC50 in assay [4] was 5.01 µM (active). Further, on Protein RecA, the EC50 was 23.6 µM (active).

For `O=C(CCl)NCc1c(Cl)cccc1-n1cccc1`, the AC50 in assay [4] was > 380 µM (inactive). Also, the half-maximal effective concentration (EC50) at Protein RecA was 15.3 µM (active).

With `COc1ccccc1C(=O)Nc1ccc2c(c1)nc1n2CCSC1`, in [1], the AC50 was 0.076 µM (active).

Turning to `Cc1ccc(N2C(=O)NC(=O)/C(=C\c3cc(C)n(-c4cc(C(=O)O)cc(C(=O)O)c4)c3C)C2=O)cc1`, the EC50 in [2] and in [3] was > 300 µM (not active) in each case.

Regarding `O=C(c1ccccc1)N1CCC(c2nc(-c3ccc(S(=O)(=O)NCC4CCCO4)cc3)no2)CC1` (stereo not given), the AC50 in assay [6] was 11.3 µM (active); in [7], 24.4 µM (active).

`c1ccc(CN2C3=NCCN3c3ccccc32)cc1`: the AC50 in assay [1] was 40.9 µM (active).

In the case of `CN(C)C(=O)C[C@H]1C[C@@H]2c3cc(NS(=O)(=O)c4ccc(F)cc4)ccc3O[C@@H]2[C@@H](CO)O1`, the AC50 in assay [7] was 54.1 µM (active).

As to `CCCCCC(=O)N/N=C/c1cc(Br)c(O)c(OC)c1`, the AC50 in [1] was 0.098 µM (active).
